From patent US10045529B2, “Quat cleaner with glycerin ether ethoxylates” (Ecolab USA Inc., priority 2012, dated 2018)

Assays:
[1] = Tergotometer detergency test on EMPA soiled swatches
Description: Laundry detergent compositions using 500 ppm sodium hydroxide (e.g. caustic) and the indicated conventional Surfonic® surfactant or the glycerin ether ethoxylate solfactant according to the invention were evaluated. A tergotometer test procedure was employed to measure detergency of test compositions according to the invention. A tergotometer along with 500 mL pots and water bath were employed. First, unwashed swatches from the lot numbers to be used in the test are read on the Konica Minolta Spectrophotometer model CM-3600d to establish the average initial (before washing) L value. A sampling of each swatch type is used. The desired wash temperature is programmed into the Tergotometer and its water bath is allowed to heat up to that temperature. 500 mL of the desired water type is added to each Tergotometer pot and allowed to equilibrate to the desired temperature.
The following standard, commercially available (EMPA) soiled swatches were used for baseline testing in the Examples, as shown in Table 9.
The test detergent compositions are weighed out and added to the Tergotometer pots. Various detergent compositions as shown in Tables 10-11 were employed under varying water conditions, including 5 grain water (Table 10) and 17 grain water (Table 11).
The detergent systems were agitated for 10 minutes to mix and dissolve in the water sources. The agitation/mixing speed RPM was adjusted to 200. The temperature of the detergent compositions dissolved in water was 60° C., unless indicated otherwise in the Figures/Examples set forth below. The swatches are added quickly to their respective pots in a left to right sequence in order to minimize differences in exposure time to the detergent systems. A wash run is completed for at least 10 minutes. At the end of the run, the swatches are removed from the pots quickly in a left to right sequence using a forceps and are transferred into 500 mL-1 liter of cool water to rinse. After rinsing with cold tap water, excess water from the swatches was removed by squeezing the swatches. The process was repeated with rinsing and squeezing excess water at least 2 more times. The swatches were air dried on a visa napkin or paper towel on the lab bench.
The swatches were then read on the HunterLab Color Quest and calculate % soil removal (i.e. whiteness) from the difference between the initial (before washing) L value and the final L value (after washing). Percent Soil Removal=(L after−L initial)/(96−L initial)*100 is represented as L*.

[2] = Cloud point of solfactants in various solutions; format: physicochemical
From the text: Various 2-Ethyl Hexanol Glycerin Ether Ethoxylate solfactants were produced using ethoxylation by a KOH Catalyst.
Further the cloud point data for the solfactants in various solutions is shown. The cloud point temperatures show the temperature above which a surfactant-rich phase separates from an aqueous solution. There is a clear relationship between the cloud point and the average EO content of the glycerin ether ethoxylate; as the ethylene oxide content of the solfactant increases, the cloud point and water solubility increase. As the carbon number on the molecule increases, a greater number of moles of ethylene oxide are required to be added to the molecule to retain the same cloud point.

[3] = Glewwe foam meter foam height test; format: physicochemical; conditions: 50 ppm; for OBSERVATIONS (foam stability after pump stopped): after 5 minutes pump stopped; for Foam Height (in) @ 1 MIN / Foam Height (in) @ 5 MIN: city water 17 gpg, 140° F., 6 psi; for Foam Height (in) @ 1 MIN: 1 minute
From the text: Foam testing was completed for the ethoxylated glycerine ether solfactants in comparison to commercially-available ethoxylated alcohols using a Glewwe foam meter. A Glewwe foam meter provides a dynamic foam test rather than a static test, which is considered more appropriate for simulation of industrial conditions. The equipment and general procedure for the Glewwe form test is described in U.S. Pat. Nos. 3,899,387 and 5,447,648, which are herein incorporated by reference in its entirety. The foam meter itself consists of a thermostated reservoir and a pump to recirculate the aqueous medium with foaming tendencies. The foam developed by the action of the aqueous stream impinging on the surface in the reservoir causes foam formation.
The foam heights of the tested compositions were determined using the following method. First 3000 mL of city water (e.g. 17 gpg) was filled into the Glewwe cylinder. The pump was turned on, pressure adjusted to 6 psi, and heated water to 140° F. The commercially available surfactant (or the solfactant according to the invention) was added at 50 ppm in the cylinder and the timer was started. Foam height was recorded at 1 minute and 5 minutes. After 5 minutes the pump was stopped and foam stability characteristics were observed. The cylinder was then drained, rinsed, and the methods repeated.

Gel formation with water = format: physicochemical
From the text: The low foam profiles and low viscosity of the glycerin ether ethoxylate solfactants as shown in Examples 5 and 6 were further compared to gel curves of conventional ethoxylated alcohols (e.g. Tomadol surfactants). […]

[4] = 5 gpg water, 50 ppm, 500 ppm sodium hydroxide, 60° C., EMPA 116 (Blood, milk and ink, Cotton)
[5] = 5 gpg, 50 ppm, EMPA 101 (olive oil/carbon black, Cotton)
[6] = 5 gpg, 50 ppm, EMPA 104 (olive oil/carbon black, Cotton blend)
[7] = 5 gpg, 50 ppm, EMPA 106 (mineral oil, Cotton)
[8] = 5 gpg, 50 ppm, EMPA 111 (Pig blood, Cotton)
[9] = 5 gpg, 50 ppm, EMPA 114 (Red wine, Cotton)
[10] = Glycerin Ether Ethoxylate %/Water % 10%/90%

| Substance | % removal EMPA 116 [1, 4] [%] | % removal EMPA 101 [1, 5] [%] | % removal EMPA 104 [1, 6] [%] | % removal EMPA 106 [1, 7] [%] | % removal EMPA 111 [1, 8] [%] | % removal EMPA 114 [1, 9] [%] | % removal EMPA 101 ([1]; 5 gpg, 100 ppm, EMPA 101) [%] | % removal EMPA 104 ([1]; 5 gpg, 100 ppm, EMPA 104) [%] | % removal EMPA 106 ([1]; 5 gpg, 100 ppm, EMPA 106) [%] | % removal EMPA 111 ([1]; 5 gpg, 100 ppm, EMPA 111) [%] | % removal EMPA 114 ([1]; 5 gpg, 100 ppm, EMPA 114) [%] | % removal EMPA 116 ([1]; 5 gpg, 100 ppm, EMPA 116) [%] | % removal EMPA 101 ([1]; 17 gpg, 50 ppm, EMPA 101) [%] | % removal EMPA 104 ([1]; 17 gpg, 50 ppm, EMPA 104) [%] | % removal EMPA 106 ([1]; 17 gpg, 50 ppm, EMPA 106) [%] | % removal EMPA 111 ([1]; 17 gpg, 50 ppm, EMPA 111) [%] | % removal EMPA 114 ([1]; 17 gpg, 50 ppm, EMPA 114) [%] | % removal EMPA 116 ([1]; 17 gpg, 50 ppm, EMPA 116) [%] | % removal EMPA 101 ([1]; 17 gpg, 100 ppm, EMPA 101) [%] | % removal EMPA 104 ([1]; 17 gpg, 100 ppm, EMPA 104) [%] | further results |
| --- | --- | --- | --- | --- | --- | --- | --- | --- | --- | --- | --- | --- | --- | --- | --- | --- | --- | --- | --- | --- | --- |
| 2-Ethyl Hexanol Glycerin Ether Ethoxylate (1 mole) [2EHGE (1 EO)] | 26 | 27 | 26 | 50.77 | 49 | 0 | 29 | 21 | 48.73 | 52 | −1 | 27 | 19 | 14 | 6 | 32 | 0 | 17 | 18 | 15 | % removal EMPA 106 ([1]; 17 gpg, 100 ppm, EMPA 106): 7%; % removal EMPA 111 ([1]; 17 gpg, 100 ppm, EMPA 111): 30%; % removal EMPA 114 ([1]; 17 gpg, 100 ppm, EMPA 114): −1%; % removal EMPA 116 ([1]; 17 gpg, 100 ppm, EMPA 116): 17%; Cloud Point Data 10% in BDG Soln. ([2]; 10% in BDG Soln.): 59.5 °C; OBSERVATIONS (foam stability after pump stopped) [3]: Unstable - Breaks; Foam Height (in) @ 1 MIN [3]: 3 in; Foam Height (in) @ 5 MIN [3]: 3 in |
| 2-Ethyl Hexanol Glycerin Ether Ethoxylate (3 moles) [2EHGE (3 EO)] | 34 | 45 | 49 | 60.8 | 50 | 1 | 29 | 25 | 50.39 | 48 | 0 | 29 | 17 | 15 | 14 | 29 | −2 | 15 | 19 | 13 | Gel Formation (Gel formation with water; 20%/80%): None; Gel Formation (Gel formation with water; 30%/70%): None; Gel Formation (Gel formation with water; 40%/60%): None; Gel Formation (Gel formation with water; 50%/50%): None; Gel Formation (Gel formation with water; 60%/40%): None; Gel Formation (Gel formation with water; 70%/30%): None; Gel Formation (Gel formation with water; 80%/20%): None; Gel Formation (Gel formation with water; 90%/10%): None; Gel Formation (Gel formation with water; [10]): None; % removal EMPA 106 ([1]; 17 gpg, 100 ppm, EMPA 106): 9%; % removal EMPA 111 ([1]; 17 gpg, 100 ppm, EMPA 111): 27%; % removal EMPA 114 ([1]; 17 gpg, 100 ppm, EMPA 114): −1%; % removal EMPA 116 ([1]; 17 gpg, 100 ppm, EMPA 116): 16%; Cloud Point Data 1% in 10% NaCl [2]: 33 °C; Cloud Point Data 1% in D.I. H2O ([2]; 1% in D.I. H2O): 50.5 °C; OBSERVATIONS (foam stability after pump stopped) [3]: Unstable - Breaks; Foam Height (in) @ 1 MIN [3]: 3.5 in; Foam Height (in) @ 5 MIN [3]: 4 in |
| 2-Ethyl Hexanol Glycerin Ether Ethoxylate (5 moles) [2EHGE (5 EO)] | 30 | 40 | 48 | 59.51 | 48 | 2 | 29 | 23 | 49.62 | 45 | 1 | 28 | 19 | 15 | 13 | 30 | 0 | 17 | 21 | 19 | Gel Formation (Gel formation with water; 20%/80%): None; Gel Formation (Gel formation with water; 30%/70%): None; Gel Formation (Gel formation with water; 40%/60%): None; Gel Formation (Gel formation with water; 50%/50%): None; Gel Formation (Gel formation with water; 60%/40%): None; Gel Formation (Gel formation with water; 70%/30%): None; Gel Formation (Gel formation with water; 80%/20%): None; Gel Formation (Gel formation with water; 90%/10%): None; Gel Formation (Gel formation with water; [10]): None; % removal EMPA 106 ([1]; 17 gpg, 100 ppm, EMPA 106): 11%; % removal EMPA 111 ([1]; 17 gpg, 100 ppm, EMPA 111): 41%; % removal EMPA 114 ([1]; 17 gpg, 100 ppm, EMPA 114): 0%; % removal EMPA 116 ([1]; 17 gpg, 100 ppm, EMPA 116): 20%; Cloud Point Data 1% in 10% NaCl [2]: 71.5 °C; OBSERVATIONS (foam stability after pump stopped) [3]: Unstable - Breaks; Foam Height (in) @ 1 MIN [3]: 4 in; Foam Height (in) @ 5 MIN [3]: 4 in |
| 2-Ethyl Hexanol Glycerin Ether Ethoxylate (7 moles) [2EHGE (7 EO)] | 33 | 38 | 47 | 59.88 | 52 | 1 | 25 | 17 | 46.8 | 49 | −3 | 19 | 20 | 15 | 11 | 32 | 0 | 16 | 20 | 17 | Gel Formation (Gel formation with water; 20%/80%): None; Gel Formation (Gel formation with water; 30%/70%): None; Gel Formation (Gel formation with water; 40%/60%): None; Gel Formation (Gel formation with water; 50%/50%): None; Gel Formation (Gel formation with water; 60%/40%): None; Gel Formation (Gel formation with water; 70%/30%): None; Gel Formation (Gel formation with water; 80%/20%): None; Gel Formation (Gel formation with water; 90%/10%): None; Gel Formation (Gel formation with water; [10]): None; % removal EMPA 106 ([1]; 17 gpg, 100 ppm, EMPA 106): 9%; % removal EMPA 111 ([1]; 17 gpg, 100 ppm, EMPA 111): 35%; % removal EMPA 114 ([1]; 17 gpg, 100 ppm, EMPA 114): 0%; % removal EMPA 116 ([1]; 17 gpg, 100 ppm, EMPA 116): 17%; Cloud Point Data 1% in 10% NaCl [2]: 78 °C; OBSERVATIONS (foam stability after pump stopped) [3]: Unstable - Breaks; Foam Height (in) @ 1 MIN [3]: 5 in; Foam Height (in) @ 5 MIN [3]: 4.5 in |
